The test system of one assay is Hep 3B. Briefly: Cell Titer-Glo proliferation assay, 72 h. The conditions noted are these: Homo sapiens; Hep3B cells, erlotinib alone, determined beforehand; read-out: concentration to inhibit about 50% proliferation. It counts as cell-based. Here is the method: (§1) Two sensitive epithelial cell lines Hep3B (A), JHH-7 (B), one insensitive epithelial cell line JHH-1(C) or one insensitive mesenchymal-like cell line HLF (D) were treated serial dilution of OSI-906 in the presence of Erlotinib for 72 hours, and sensitivity to treatment was measured by proliferation assays.
(§2) Cell lines: Twenty-one HCC cell lines were purchased from either ATCC (HepG2, Hep3B, PLC/PRF/5, SK-Hepl, SNU-182, SNU-387, SNU-398, SNU-423, SNU-449, SNU-475) or Health Science Research Resources Bank (Japan) (HUH-1, HUH-6, HUH-7, HLE, HLF, JHH-1, JHH-2, JHH-4, JHH-5, JHH-6, JHH-7). All the cell lines were maintained in media as described by the vendors. For growth inhibition assays, cells were plated and allowed to proliferate for 24 hours. After 24 hours, cells had reached approximately 15% confluency, at which time serial dilutions of OSI-906 were added and the cells grown for a further 72 hours. Cell viability was assayed using the Cell Titer-Glo reagent (Promega Corp., Madison, Wis.).
(§3) Proliferation Assay. Proliferation was assayed using Cell Titer Glo assays (Promega) and was determined 72 hours following dosing with OSI-906. The basis of the assay is a luminescent quantitation of ATP present in a cell culture plate well. In essence, the greater the number of viable cells in the well, the greater the level of ATP present. The assay utilizes a substrate that binds ATP to produce a luminescent signal, which can be read on a luminometer. Unless otherwise noted, the manufacturer's instructions were followed exactly. Briefly, on Day 1, cells were plated in 120 μl of 10% serum-containing growth media at a density of 4000 cells/well in a white polystyrene 96 well assay plate. On day 2, cells were treated with 15 μl of 10× concentration of the IGF-1R inhibitor (e.g. OSI-906) or DMSO alone for a final well volume of 150 μl. After 72 h incubation with the inhibitor, the cells were assayed. Results were calculated as a fraction of the DMSO controlled cells.
Background: Cellular ATP, detected with luciferase, serves as a proxy for viable cell number.

A further assay concerns JHH-1. Put plainly: Cell Titer-Glo proliferation assay, 72 h. It counts as cell-based. The conditions noted are these: Homo sapiens, JHH1; JHH-1 cells, erlotinib alone, determined beforehand; read-out: concentration to inhibit about 50% proliferation. Here is the method:
as §1, §2, §3

Assay [1] deals with AFP expression in HUH-1, JHH-5 and HepG2 cells. Briefly: AFP expression by RT-PCR after TGFβ treatment. It counts as cell-based, human. Conditions: 10 ng/ml TGFβ for 10 days, HUH-1, JHH-5, HepG2. Here is the method: FIG. 11: TGFβ decreases AFP expression and cell sensitivity to OSI-906. HUH-1, JHH-5 and HepG2 cells were treated with TGFβ and cells were either treated with OSI-906 for proliferation assays (A) or lysed to measure AFP expression by RT-PCR (B).
Taqman Assays: Total RNA was isolated with RNeasy kit (Qiagen) and treated with RNase-free DNase. Reverese transcription was performed with SuperScript III First-Strand Synthesis system (Invitrogen, Carlsbad, Calif.). The Gene Expression Assays were obtained from Applied Biosystems, Foster City, Calif. Quantitation of relative gene expression was conducted as described by the manufacturer using 50 ng of template. In order to determine relative expression across cell lines, amplification of AFP gene was compared to amplification of the gene for GAPDH as an internal standard.
(§4) TGFβ treatment: Cells were grown in medium supplemented with 10 ng/ml TGFβ (EMD Biosciences #616450) for 10 days with replating every 3-4 days. The cells were then lysed for either RT-PCR or CELLTITER-GLO® proliferation assays (Promega, Madison, Wis.).

For assay [2], the system named is ErbB3 in JHH5, HepG2, and HUH1 HCC cells. Briefly: ErbB3 protein expression after TGFβ treatment. Type of assay: cell-based, human. The conditions noted are these: data not shown. Here is the method: Preparation of Protein Lysates and Western Blotting: Cells were rinsed with PBS and lysed in RIPA buffer (Sigma #R0278) containing protease and phosphatase inhibitor cocktails (Sigma #P2850, P8340, P5726). Cell lysates were cleared by centrifugation and subjected to western blotting. Antibodies included: E-cadherin (Santa Cruz #sc21791), ErbB3 (Santa Cruz #sc285), vimentin (BD Pharmingen #550513), Zebl (Santa Cruz #sc25388).
as §4

Turning to `C#Cc1cccc(Nc2ncnc3cc(OCCOC)c(OCCOC)cc23)c1` [Erlotinib, [6,7-bis(2-methoxyethoxy)-4-quinazolin-4-yl]-(3-ethynylphenyl) amine, reference compound], the figures for the IC50 with Hep 3B and in the assay with JHH-1 were 3300 nM and 120 nM, respectively.
As for TGFβ, in assay [1], the “AFP expression after TGFβ treatment” value is listed as “decreased”. The “expression of the epithelial biomarker protein ErbB3 after TGFβ treatment” value in assay [2] was “decreased”.

The values above are taken from US20120214830A1, “BIOLOGICAL MARKERS PREDICTIVE OF ANTI-CANCER RESPONSE TO INSULIN-LIKE GROWTH FACTOR-1 RECEPTOR KINASE INHIBITORS IN HEPATOCELLULAR CARCINOMA” (OSI Pharmaceuticals, LLC, priority 2011, published 2012).
